The record followed here is paper PMC6429309 (Molecules, 2019).

In brackets after ≈: the same amount, converted by molar mass. Several values for one entry are separate records, joined by “and”; a condition that tells them apart may be missing. Equal entries are not always repeated.

Assay [1] deals with Xanthomonas axonopodis pv. citri (Xac). The experiment in a line: microbe, parasite or virus in culture. It counts as cell-based. To be noted: for inhibition at 50 µg/mL / inhibition at 100 µg/mL / EC50: Xanthomonas axonopodis; for inhibition at 50 µg/mL / inhibition at 100 µg/mL: read-out: Antibacterial activity (inhibition rate) against Xac; for EC50: read-out: EC50 against Xac.

The test system of assay [2] is Xanthomonas oryzae pv. oryzae (Xoo). Description: microbe, parasite or virus in culture. It counts as cell-based. To be noted: for inhibition at 50 µg/mL / inhibition at 100 µg/mL / EC50: Xanthomonas oryzae; for inhibition at 50 µg/mL / inhibition at 100 µg/mL: read-out: Antibacterial activity (inhibition rate) against Xoo; for EC50: read-out: EC50 against Xoo; for Antibacterial activity (inhibition rate) against Xoo / EC50 against Xoo: in vitro; for Antibacterial activity (inhibition rate) against Xoo: strain PXO99A, average of three replicates; for EC50 against Xoo: five concentrations 100-6.25 μg/mL.

Consider `CCOP(=O)(OCC)Oc1ccccc1/C=C/C(=O)/C=C/c1ccc(OC)cc1` [3d], for which, in assay [1], the inhibition (as a rule, the drop in the measured response relative to a control, in per cent) at 50 µg/mL stood at 34.9 ± 1.5% and the inhibition at 100 µg/mL turned out to be 46.4 ± 1.1%. In assay [2], the inhibition at 50 µg/mL is 32.6 ± 2.2% and the inhibition at 100 µg/mL worked out at 35.7 ± 1.1%.
For the molecule `CCOP(=O)(OCC)Oc1ccccc1/C=C/C(=O)/C=C/c1ccc(C)cc1` [3k], in assay [1], the inhibition at 50 µg/mL came to 47.7 ± 3.1% and the inhibition at 100 µg/mL is 52.6 ± 2.9%. Further, in assay [2], the inhibition at 50 µg/mL was 39.4 ± 0.4% and the inhibition at 100 µg/mL worked out at 41.5 ± 0.6%.
With `CCOP(=O)(OCC)Oc1ccccc1/C=C/C(=O)/C=C/c1ccc(Cl)cc1` [3b], in assay [1], the inhibition at 50 µg/mL is 53 ± 3.6%; the inhibition at 100 µg/mL was 53.1 ± 3.2%; the half-maximal effective concentration (EC50) (in general, the concentration giving half of the maximal effect) turned out to be 34.1 µg/mL (≈ 81 µM). Moreover, in assay [2], the inhibition at 50 µg/mL was 35 ± 4.4% and the inhibition at 100 µg/mL was found to be 37 ± 2.9%.
Turning to `COP(=O)(OC)Oc1ccccc1/C=C/C(=O)/C=C/c1ccc(Cl)cc1` [3a, 2-((1E,4E)-5-(4-chlorophenyl)-3-oxopenta-1,4-dien-1-yl)phenyl dimethyl phosphate], in assay [1], the inhibition at 50 µg/mL came out at 50.6 ± 4.6%, the inhibition at 100 µg/mL was determined as 59.7 ± 1.8% and the 50% effective concentration (EC50) amounted to 45 µg/mL. In assay [2], the inhibition at 50 µg/mL is 83.9 ± 2.1%, the inhibition at 100 µg/mL is 85 ± 2.1% and the concentration giving a half-maximal response (EC50) was found to be 35.8 µg/mL.
Turning to `COP(=O)(OC)Oc1ccccc1/C=C/C(=O)/C=C/c1ccc([N+](=O)[O-])cc1` [3i], in assay [1], the inhibition at 50 µg/mL was found to be 50.8 ± 4.2% and the inhibition at 100 µg/mL is 50.9 ± 4.5%. Also, in assay [2], the inhibition at 50 µg/mL is 43.9% and the inhibition at 100 µg/mL is 56.6 ± 1.3%.
For the molecule `COP(=O)(OC)Oc1ccccc1/C=C/C(=O)/C=C/c1cccc(C)c1` [3r], in assay [1], the inhibition at 50 µg/mL is 10.3 ± 2.5% and the inhibition at 100 µg/mL is 20.5 ± 1.2%. In addition, in assay [2], the inhibition at 50 µg/mL stood at 21 ± 2.2% and the inhibition at 100 µg/mL was 42.4 ± 1.4%.
On to `S=c1[nH]nc(NCNc2n[nH]c(=S)s2)s1` [Bismerthiazol, bismerthiazol, reference compound], for which, in assay [1], the “Antibacterial activity (inhibition rate) against Xac” value is 70.3±2.8% and 54.9 ± 5.5%; the “EC50 against Xac” value stood at 44.5 µg/mL (≈ 160 µM). Besides, the “Antibacterial activity (inhibition rate) against Xoo” value in assay [2] (50 μg/mL) stood at 45.2 ± 2.0%. In addition, the “Antibacterial activity (inhibition rate) against Xoo” value in assay [2] (100 μg/mL) is listed as 64.9 ± 3.9%. Besides, the “EC50 against Xoo” value in assay [2] amounted to 58.8 µg/mL (≈ 211 µM).
As to `CCOP(=O)(OCC)Oc1ccccc1/C=C/C(=O)/C=C/c1cccc([N+](=O)[O-])c1` [3h], in assay [1], the inhibition at 50 µg/mL amounted to 48.5 ± 4.2% and the inhibition at 100 µg/mL is 54.8 ± 3.8%. In addition, in assay [2], the inhibition at 50 µg/mL came out at 78.1 ± 1.4%, the inhibition at 100 µg/mL was found to be 86.5 ± 1.9% and the EC50 was 19.1 µg/mL (≈ 44.3 µM).
Regarding `CCOP(=O)(OCC)Oc1ccccc1/C=C/C(=O)/C=C/c1cccc(C(F)(F)F)c1` [3q], the inhibition at 50 µg/mL in assay [1] was determined as 5.4 ± 2.6%; in assay [2], 20.3 ± 3.1%. In addition, the inhibition at 100 µg/mL worked out at 25.4 ± 0.5% in assay [1] and 31.5 ± 2.1% in assay [2].
The corresponding values for `COP(=O)(OC)Oc1ccccc1/C=C/C(=O)/C=C/c1ccccc1` [3l] are 29.2 ± 4.3%, 16.7 ± 5.3%, 49.4 ± 8% and 35.9 ± 2.9%.
Consider `Nc1nnc([S-])s1.Nc1nnc([S-])s1.[Cu+2]` [Thiodiazole-copper, thiodiazole-copper, reference compound], for which the “EC50 against Xac” value in assay [1] worked out at 87.9 µg/mL. Also, the “Antibacterial activity (inhibition rate) against Xoo” value was determined as 37.2 ± 3.2% in assay [2] (50 μg/mL) and 50.2 ± 0.9% in assay [2] (100 μg/mL). The “EC50 against Xoo” value in assay [2] was 78.7 µg/mL.
Take `COP(=O)(OC)Oc1ccccc1/C=C/C(=O)/C=C/c1ccc(Br)cc1` [3n]: the values for the inhibition at 50 µg/mL in assay [1] and in assay [2] were 2.5 ± 0.9% and 18.8 ± 1.1%, respectively. The inhibition at 100 µg/mL in assay [1] was determined as 16.1 ± 3.8%; in assay [2] it was 23.8 ± 5.3%.
Taken in the same sequence, the figures for `CCOP(=O)(OCC)Oc1ccccc1/C=C/C(=O)/C=C/c1ccccc1Cl` [3f] were 52.9 ± 2.1%, 35.7 ± 3.4%, 53.1 ± 2.1% and 36.4 ± 3.1%.
For the molecule `CCOP(=O)(OCC)Oc1ccccc1/C=C/C(=O)/C=C/c1ccc([N+](=O)[O-])cc1` [3j], in assay [1], the inhibition at 50 µg/mL was 52.9 ± 5.4% and the inhibition at 100 µg/mL stood at 61.9 ± 1.1%. In addition, in assay [2], the inhibition at 50 µg/mL turned out to be 81.4 ± 0.9%, the inhibition at 100 µg/mL is 85.5 ± 0.8% and the concentration for a half-maximal effect (EC50) worked out at 17.7 µg/mL (≈ 41 µM).
Regarding `COc1ccc(/C=C/C(=O)/C=C/c2ccccc2OP(=O)(OC)OC)cc1` [3c], in assay [1], the inhibition at 50 µg/mL stood at 53.5 ± 2.5% and the inhibition at 100 µg/mL worked out at 57.5 ± 2.1%. Further, in assay [2], the inhibition at 50 µg/mL came to 23.4 ± 0.9% and the inhibition at 100 µg/mL was 25.5 ± 0.9%.
The corresponding values for `CCOP(=O)(OCC)Oc1ccccc1/C=C/C(=O)/C=C/c1ccc(Br)cc1` [3o] are 23 ± 2.7%, 28.4 ± 3.4%, 19.9 ± 3.7% and 31.4 ± 2.2%.
Consider `COP(=O)(OC)Oc1ccccc1/C=C/C(=O)/C=C/c1ccccc1Cl` [3e], for which, in assay [1], the inhibition at 50 µg/mL is 67.9 ± 4.3%, the inhibition at 100 µg/mL amounted to 77.6 ± 2.8% and the EC50 is 22.9 µg/mL (≈ 58.3 µM). For the same molecule, in assay [2], the inhibition at 50 µg/mL worked out at 65.3 ± 1.9%, the inhibition at 100 µg/mL amounted to 69.4 ± 0.6% and the EC50 amounted to 46 µg/mL (≈ 117 µM).
Consider `CCOP(=O)(OCC)Oc1ccccc1/C=C/C(=O)/C=C/c1cccc(C)c1` [3s], for which, in assay [1], the inhibition at 50 µg/mL amounted to 8.5 ± 3.8% and the inhibition at 100 µg/mL stood at 27.4 ± 1.7%. In assay [2], the inhibition at 50 µg/mL was found to be 12.5 ± 6% and the inhibition at 100 µg/mL was determined as 29.5 ± 4.8%.
Take `CCOP(=O)(OCC)Oc1ccccc1/C=C/C(=O)/C=C/c1ccccc1` [3m]: in assay [1], the inhibition at 50 µg/mL amounted to 18 ± 2.9% and the inhibition at 100 µg/mL stood at 27.4 ± 0.6%. For the same molecule, in assay [2], the inhibition at 50 µg/mL was determined as 2.5 ± 5.7% and the inhibition at 100 µg/mL turned out to be 28.7 ± 9.1%.
As to `COP(=O)(OC)Oc1ccccc1/C=C/C(=O)/C=C/c1cccc(C(F)(F)F)c1` [3p], in assay [1], the inhibition at 50 µg/mL worked out at 11.5 ± 1.8% and the inhibition at 100 µg/mL worked out at 20.2 ± 0.8%. Further, in assay [2], the inhibition at 50 µg/mL is 21.8 ± 1.5% and the inhibition at 100 µg/mL is 25 ± 3.1%.
